# Measurements: US8871929B2, “Fused-imidazoyl compounds useful as antimicrobial agents” (Merck Sharp & Dohme Corp., priority 2010, dated 2014)
# Tested on: Staphylococcus aureus ATCC29213
# Assay: Susceptibility testing (MIC determination), broth microdilution
# Type: cell-based
# Details: Mueller Hinton broth, 96-well plate, overnight incubation at 35° C., read-out: MIC Staph. aureus ATCC-29213
# Procedure: Compounds useful in the method of the invention were investigated for their utility as antimicrobial agents in the following assay. Susceptibility testing (MIC determinations) was performed using the standard broth microdilution methodology precisely as described in the Clinical Laboratory Standards Institute Document M7-A6; Methods for Dilution Antimicrobial Susceptibility Tests for Bacteria That Grow Aerobically; […] To perform the test, a series of 0.1 ml media in a 96-well plate is prepared with Mueller Hinton broth to which various concentrations of the test compound are added. The media are then inoculated with a standardized suspension of the test organism, Staphylococcus aureus ATCC29213. After overnight incubation at 35° C., the tests are examined and the minimal inhibitory concentration (MIC) is determined. MIC is defined as the lowest concentration of an antimicrobial agent that prevents visible growth of a microorganism in the broth microdilution susceptibility test
row,MIC [µg/mL],Structure (SMILES)
1,0.06,O=C(CNc1c(-c2ccc(N3CCOCC3)nc2)nc2cccc(Cl)n12)N1CCN(c2c(Cl)cncc2Cl)CC1 [Compound 1]
2,0.125,CCN1CCc2cc(-c3nc4ccccn4c3NCC(=O)N3CCN(c4c(Cl)cncc4Cl)CC3)ccc21 [Compound 2]
3,0.125,O=C(CNc1c(-c2ccc(N3CCSCC3)nc2)nc2cnccn12)N1CCN(c2c(Cl)cncc2Cl)CC1 [Compound 3]
4,0.25,Cc1cccc2nc(-c3ccc(N4CCOCC4)nc3)c(NCC(=O)N3CCN(c4c(Cl)cncc4Cl)CC3)n12 [Compound 5]
5,0.25,Cc1ccc2nc(-c3ccc(N4CCOCC4)nc3)c(NCC(=O)N3CCN(c4c(Cl)cncc4Cl)CC3)n2c1 [Compound 6]
6,0.4,O=C(CNc1c(-c2ccc(N3CCOCC3)nc2)nc2cnccn12)N1CCN(c2c(Cl)cncc2Cl)CC1 [Compound 7]
7,0.44,O=C(CNc1c(-c2ccc(N3CCCCC3)nc2)nc2cnccn12)N1CCN(c2c(Cl)cncc2Cl)CC1 [Compound 8]
8,0.46,O=C(CNc1c(-c2ccc(N3CCCC3)nc2)nc2cnccn12)N1CCN(c2c(Cl)cncc2Cl)CC1 [Compound 9]
9,0.5,CN1CCOc2cc(-c3nc4cnccn4c3NCC(=O)N3CCN(c4c(Cl)cncc4Cl)CC3)ccc21 [Compound 10]
10,0.5,CCN1CCCc2cc(-c3nc4cnccn4c3NCC(=O)N3CCN(c4c(Cl)cncc4Cl)CC3)ccc21 [Compound 11]
11,0.5,CN(C)c1ccc(-c2nc3cnccn3c2NCC(=O)N2CCN(c3c(Cl)cncc3Cl)CC2)cn1 [Compound 12]
12,0.96,CN1CCCc2cc(-c3nc4cnccn4c3NCC(=O)N3CCN(c4c(Cl)cncc4Cl)CC3)ccc21 [Compound 13]
13,1,CC(C)N1CCCc2cc(-c3nc4cnccn4c3NCC(=O)N3CCN(c4c(Cl)cncc4Cl)CC3)ccc21 [Compound 14]
14,1,CC(C)N1CCc2cc(-c3nc4cnccn4c3NCC(=O)N3CCN(c4c(Cl)cncc4Cl)CC3)ccc21 [Compound 15]
15,2,CCc1ccc(-c2nc3cnccn3c2NCC(=O)N2CCN(c3c(Cl)cncc3Cl)CC2)s1 [Compound 16]
16,2,CCCN1CCc2cc(-c3nc4cnccn4c3NCC(=O)N3CCN(c4c(Cl)cncc4Cl)CC3)ccc21 [Compound 17]
17,3,CCc1ccc(-c2nc3cnccn3c2NCC(=O)N2CCN(c3c(Cl)cccc3Cl)CC2)s1 [Compound 18]
18,4,CCN1CCc2cc(-c3nc4cnccn4c3NCC(=O)N3CCN(c4ccccc4C#N)CC3)ccc21 [Compound 19]
19,4,O=C(CNc1c(-c2cnc(N3CCCCC3)nc2)nc2cnccn12)N1CCN(c2c(Cl)cncc2Cl)CC1 [Compound 21]
20,8,Cn1ccc2cc(-c3nc4cnccn4c3NCC(=O)N3CCN(c4c(Cl)cncc4Cl)CC3)ccc21 [Compound 22]
21,8,CCc1ccc(-c2nc3cnccn3c2NCC(=O)N2CCN(c3c(Cl)cccc3Cl)CC2)o1 [Compound 23]
22,8,CC(C)N1CCCc2cc(-c3nc4cnccn4c3NCC(=O)N3CCN(c4ccccc4C#N)CC3)ccc21 [Compound 24]
23,8,CCCN1CCCc2cc(-c3nc4cnccn4c3NCC(=O)N3CCN(c4c(Cl)cncc4Cl)CC3)ccc21 [Compound 25]

row,MIC [µg/mL],Structure (SMILES)
1,8,CCN1CCc2cc(-c3nc4cnccn4c3NCC(=O)N3CCN(c4ncccc4C#N)CC3)ccc21 [Compound 26]
2,0.06,O=C(CNc1c(-c2ccc(N3CCCC3)cc2)nc2ccccn12)N1CCN(c2c(Cl)cncc2Cl)CC1 [Compound 27]
3,0.31,CN(C)c1ccc(-c2nc3ccccn3c2NCC(=O)N2CCN(c3c(Cl)cncc3Cl)CC2)cc1 [Compound 28]
4,5,Cc1cccc(N2CCN(C(=O)CNc3c(-c4ccc(N5CCCC5)cc4)nc4ccccn34)CC2)c1C [Compound 29]
5,5,O=C(CNc1c(-c2ccc(N3CCCC3)cc2)nc2ccccn12)N1CCN(c2ccccc2Cl)CC1 [Compound 30]
6,5,CN(C)c1ccc(-c2nc3ccccn3c2NCC(=O)N2CCN(c3ccccc3Cl)CC2)cc1 [Compound 31]
7,0.19,CCN1CCc2cc(-c3nc4cnccn4c3NCC(=O)N3CCN(c4c(Cl)cncc4Cl)CC3)ccc21 [Compound 33]
8,5,Cc1ccccc1N1CCN(C(=O)CNc2c(-c3ccc(N4CCCC4)cc3)nc3ccccn23)CC1 [Compound 34]
9,0.313,N#Cc1ccccc1N1CCN(C(=O)CNc2c(-c3ccc(N4CCCC4)cc3)nc3ccccn23)CC1 [Compound 35]
10,0.625,N#Cc1cccnc1N1CCN(C(=O)CNc2c(-c3ccc(N4CCCC4)cc3)nc3ccccn23)CC1 [Compound 36]
11,0.5,Cc1cccc(C)c1N1CCN(C(=O)CNc2c(-c3ccc(N4CCCC4)cc3)nc3ccccn23)CC1 [Compound 37]
12,1,CSc1ccccc1N1CCN(C(=O)CNc2c(-c3ccc(N4CCCC4)cc3)nc3ccccn23)CC1 [Compound 39]
13,1,Cc1ccc(Cl)cc1N1CCN(C(=O)CNc2c(-c3ccc(N4CCCC4)cc3)nc3ccccn23)CC1 [Compound 40]
14,0.313,O=C(CNc1c(-c2ccc(N3CCCC3)cc2)nc2ccccn12)N1CCN(c2c(Cl)cccc2Cl)CC1 [Compound 41]
15,2.5,O=C(CNc1c(-c2ccc(N3CCCC3)cc2)nc2ccccn12)N1CCN(c2ccncc2Cl)CC1 [Compound 42]
16,8,Cc1ccccc1C1CCN(C(=O)CNc2c(-c3ccc(N4CCCC4)cc3)nc3ccccn23)CC1 [Compound 43]
17,4,O=C(CNc1c(-c2ccc(N3CCCC3)cc2)nc2ccccn12)N1CCC(c2cccc3ccccc23)CC1 [Compound 44]
18,0.313,N#Cc1ccccc1N1CCN(C(=O)CNc2c(-c3ccc(N4CCCC4)cc3)nc3cnccn23)CC1 [Compound 46]
19,0.625,N#Cc1cccnc1N1CCN(C(=O)CNc2c(-c3ccc(N4CCCC4)cc3)nc3cnccn23)CC1 [Compound 47]
20,5,CSc1ccccc1N1CCN(C(=O)CNc2c(-c3ccc(N4CCCC4)cc3)nc3cnccn23)CC1 [Compound 49]
21,2.5,Cc1ccc(Cl)cc1N1CCN(C(=O)CNc2c(-c3ccc(N4CCCC4)cc3)nc3cnccn23)CC1 [Compound 50]
22,5,O=C(CNc1c(-c2ccc(N3CCCC3)cc2)nc2cnccn12)N1CCN(c2ccncc2Cl)CC1 [Compound 51]
23,5,O=C(CNc1c(-c2ccc(N3CCCC3)cc2)nc2cnccn12)N1CCC(c2cccc3ccccc23)CC1 [Compound 52]

row,MIC [µg/mL],Structure (SMILES)
1,6,CN(C)c1ccc(-c2nc3ccccn3c2NCC(=O)N2CCN(c3ncccc3C#N)CC2)cc1 [Compound 55]
2,2,Cc1cccc(C)c1N1CCN(C(=O)CNc2c(-c3ccc(N(C)C)cc3)nc3ccccn23)CC1 [Compound 56]
3,0.25,CN(C)c1ccc(-c2nc3ccccn3c2NCC(=O)N2CCN(c3c(Cl)cccc3Cl)CC2)cc1 [Compound 57]
4,6,CN(C)c1ccc(-c2nc3cnccn3c2NCC(=O)N2CCN(c3ccccc3C#N)CC2)cc1 [Compound 58]
5,6,CN(C)c1ccc(-c2nc3cnccn3c2NCC(=O)N2CCN(c3ncccc3C#N)CC2)cc1 [Compound 59]
6,8,Cc1ccc(Cl)cc1N1CCN(C(=O)CNc2c(-c3ccc(N(C)C)cc3)nc3cnccn23)CC1 [Compound 60]
7,0.25,CN(C)c1ccc(-c2nc3cnccn3c2NCC(=O)N2CCN(c3c(Cl)cccc3Cl)CC2)cc1 [Compound 61]
8,8,CN(C)c1ccc(-c2nc3cnccn3c2NCC(=O)N2CCC(c3cccc4ccccc34)CC2)cc1 [Compound 62]
9,1,CC(C)c1ccc(-c2nc3cnccn3c2NCC(=O)N2CCN(c3c(Cl)cccc3Cl)CC2)cc1 [Compound 65]
10,8,CC(C)c1ccc(-c2nc3cnccn3c2NCC(=O)N2CCN(c3ccccc3C#N)CC2)cc1 [Compound 66]
11,4,CC(C)c1ccc(-c2nc3cnccn3c2NCC(=O)N2CCN(c3ncccc3C#N)CC2)cc1 [Compound 67]
12,4,CCc1ccc(-c2nc3cnccn3c2NCC(=O)N2CCN(c3c(Cl)cccc3Cl)CC2)cc1 [Compound 70]
13,8,O=C(CNc1c(-c2ccc(N3CCCC3)cc2)nc2cnccn12)N1CCN(c2ccccc2C(F)(F)F)CC1 [Compound 72]
14,0.09,O=C(CNc1c(-c2ccc(N3CCOCC3)cc2)nc2ccccn12)N1CCN(c2c(Cl)cncc2Cl)CC1 [Compound 73]
15,0.06,Cc1ccn2c(NCC(=O)N3CCN(c4c(Cl)cncc4Cl)CC3)c(-c3ccc(N4CCOCC4)cc3)nc2c1 [Compound 74]
16,0.03,Cc1cccc2nc(-c3ccc(N4CCOCC4)cc3)c(NCC(=O)N3CCN(c4c(Cl)cncc4Cl)CC3)n12 [Compound 76]
17,0.06,O=C(CNc1c(-c2ccc(N3CCOCC3)cc2)nc2ccc(C(F)(F)F)cn12)N1CCN(c2c(Cl)cncc2Cl)CC1 [Compound 77]
18,0.125,Cc1ccc2nc(-c3ccc(N4CCOCC4)cc3)c(NCC(=O)N3CCN(c4c(Cl)cncc4Cl)CC3)n2c1 [Compound 78]
19,0.06,O=C(CNc1c(-c2ccc(N3CCOCC3)cc2)nc2cccc(Cl)n12)N1CCN(c2c(Cl)cncc2Cl)CC1 [Compound 79]
20,0.25,O=C(CNc1c(-c2ccc(N3CCOCC3)cc2)nc2cccc(C(F)(F)F)n12)N1CCN(c2c(Cl)cncc2Cl)CC1 [Compound 80]
21,0.25,O=C(CNc1c(-c2ccc(N3CCOCC3)cc2)nc2ccc(Cl)cn12)N1CCN(c2c(Cl)cncc2Cl)CC1 [Compound 81]
22,0.125,O=C(CNc1c(-c2ccc(N3CCOCC3)cc2)nc2cc(C(F)(F)F)ccn12)N1CCN(c2c(Cl)cncc2Cl)CC1 [Compound 82]
23,0.125,O=C(CNc1c(-c2ccc(N3CCOCC3)cc2)nc2ccc(F)cn12)N1CCN(c2c(Cl)cncc2Cl)CC1 [Compound 83]
